Data published in publication PMC4245125, “Pharmacological and Behavioral Characterization of D-473, an Orally Active Triple Reuptake Inhibitor Targeting Dopamine, Serotonin and Norepinephrine Transporters” (PLoS ONE, 2014).
Where “and” joins values, the source holds several entries; their conditions need not be identical. Equal entries are not always repeated. Entries after “also recorded” stand apart in the source; their conditions may differ.

Legend:
Alpha2C = Alpha2C (Homo sapiens, UniProt P18825); assay: NIMH PDSP receptor binding, Alpha2C; conditions: [3H]Clonidine
Chain of Alpha2C (P18825 whole entry): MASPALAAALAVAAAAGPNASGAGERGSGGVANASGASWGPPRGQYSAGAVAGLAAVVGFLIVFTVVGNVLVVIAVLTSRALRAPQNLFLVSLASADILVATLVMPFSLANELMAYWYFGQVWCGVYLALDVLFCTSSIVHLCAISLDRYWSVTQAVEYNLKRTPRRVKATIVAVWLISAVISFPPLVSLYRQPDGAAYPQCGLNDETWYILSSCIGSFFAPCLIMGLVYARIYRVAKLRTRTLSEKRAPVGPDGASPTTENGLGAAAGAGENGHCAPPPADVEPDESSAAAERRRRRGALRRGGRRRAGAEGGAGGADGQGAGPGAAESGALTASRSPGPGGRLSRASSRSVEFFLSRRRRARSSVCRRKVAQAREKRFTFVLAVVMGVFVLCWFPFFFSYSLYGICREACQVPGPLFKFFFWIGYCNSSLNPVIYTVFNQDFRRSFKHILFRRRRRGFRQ

BZP Rat Brain Site = assay: NIMH PDSP receptor binding, BZP Rat Brain Site; conditions: 3H-Flunitrazepam
hNET = hNET (Homo sapiens, UniProt P23975); assay: Inhibition of [3H]DA uptake by cloned human NET in HEK293 cells
Chain of hNET (P23975 whole entry): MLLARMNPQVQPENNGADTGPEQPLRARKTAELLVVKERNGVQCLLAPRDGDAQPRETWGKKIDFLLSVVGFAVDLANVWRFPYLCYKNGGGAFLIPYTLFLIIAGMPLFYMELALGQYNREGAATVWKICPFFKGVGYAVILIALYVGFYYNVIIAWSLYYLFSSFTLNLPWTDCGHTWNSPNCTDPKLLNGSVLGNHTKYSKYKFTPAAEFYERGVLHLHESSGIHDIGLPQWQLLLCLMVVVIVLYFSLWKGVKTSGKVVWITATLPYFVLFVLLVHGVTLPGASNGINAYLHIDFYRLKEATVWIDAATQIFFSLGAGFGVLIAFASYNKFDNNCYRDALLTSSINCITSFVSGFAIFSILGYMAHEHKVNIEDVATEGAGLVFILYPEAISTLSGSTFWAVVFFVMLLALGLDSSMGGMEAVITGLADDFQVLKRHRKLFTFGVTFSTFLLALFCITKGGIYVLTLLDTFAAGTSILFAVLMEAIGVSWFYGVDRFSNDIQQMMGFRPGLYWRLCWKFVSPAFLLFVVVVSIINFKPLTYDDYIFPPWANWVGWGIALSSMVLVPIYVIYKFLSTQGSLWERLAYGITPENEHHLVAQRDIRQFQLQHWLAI

δ-opioid = molecular target: T1, δ-opioid (Homo sapiens, UniProt P41143); assay: NIMH PDSP receptor binding, δ-opioid; conditions: [3H]DADLE, read-out: % Inhibition of Binding at 10 µM D-473
T1 construct: purchased NIMH PDSP
T1 sequence (P41143 whole entry): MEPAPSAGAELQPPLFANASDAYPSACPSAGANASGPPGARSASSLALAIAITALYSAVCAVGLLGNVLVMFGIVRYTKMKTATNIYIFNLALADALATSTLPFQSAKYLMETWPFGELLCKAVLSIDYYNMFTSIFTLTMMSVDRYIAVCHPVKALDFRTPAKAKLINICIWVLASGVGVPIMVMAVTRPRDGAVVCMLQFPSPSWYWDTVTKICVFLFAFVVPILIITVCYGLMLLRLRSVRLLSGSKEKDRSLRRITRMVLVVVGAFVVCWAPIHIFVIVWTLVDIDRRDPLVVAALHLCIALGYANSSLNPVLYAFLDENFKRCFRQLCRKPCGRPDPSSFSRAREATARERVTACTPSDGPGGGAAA

[1] = Plasma concentration after oral administration in rats; assay type: in vivo; conditions: rat, male Sprague-Dawley rats, 25 mg/kg PO
Method: Sample preparation: Following oral administration of 25 mg/kg of D-473 and D-142 in male Sprague Dawley rats, the blood samples were collected at different time points over a period of 8 h for analysis. Concentrations of D-473 and D-142 in plasma were quantitated using a set of calibration standards prepared in blank matrix that were processed in parallel. Plasma concentration evaluation was carried out by the CRO, Absorption System, PA. Additionally, brain uptake studies of D-473 were carried out at three different time points (2, 4 and 6 h) following oral administration of 25 mg/kg D-473. Concentrations of D-473 in rat brain were quantitated using a set of calibration standards which were prepared in blank brain homogenate matrix on the day of analysis. The standard samples (5, 10, 25, 100, 500, 1000, and 2000 ng/mL) for calibration curve were prepared by spiking 45 µL of blank rat plasma with 5 µL of appropriate working dilution of D-473 in acetonitrile. The bioanalytical sample preparation for brain and plasma analysis followed by quantification of test compounds entailed the addition of 250 µL acetonitrile to every 50 µL of standard and analyte samples to precipitate tissue plasma proteins and tissue macromolecules. These mixtures were then vortexed for 15 min at 1400 rpm. The suspensions were then clarified by centrifugation (18000 g, 10 min at 4°C), and each 150 µL of the resulting supernatant was mixed well with 50 µL 0.1% formic acid in 50/50 (v/v) ACN/water solution for about 10 sec. The mixtures were again centrifuged (18000 g, 10 min at 4°C) before 100 µL of clear supernatant were transferred to auto sampler vials for LC-MS/MS analysis.
The analysis of blood sample was carried out by the CRO Absorption system, PA. Briefly, the analysis was carried out by Waters Acquity UPLC equipped with PE Sciex API4000 mass spectrometer. Reverse phase Waters Acquity BEH Phenyl Column 1.7micron, 2.1×30 mm column was used for analysis. 5 µL of sample solutions were injected with a flow rate 1 mL/min and the samples were eluted with gradient elution using solvent A (10% buffer: 90% water) and solvent B (10% buffer: 90% acetonitrile). Buffer used was 40 mM Ammonium Formate Buffer, pH 3.5. Pharmacokinetic prarameters were estimated by a non-compartmental model using WinNonlin v5.2.1 software.

5HT1a = molecular target: T2, 5HT1a (Homo sapiens, UniProt P08908); assay: NIMH PDSP receptor binding, 5HT1a; conditions: [3H]8-OH-DPAT, read-out: % Inhibition of Binding at 10 µM D-473
T2 construct: purchased NIMH PDSP
T2 sequence (P08908 whole entry): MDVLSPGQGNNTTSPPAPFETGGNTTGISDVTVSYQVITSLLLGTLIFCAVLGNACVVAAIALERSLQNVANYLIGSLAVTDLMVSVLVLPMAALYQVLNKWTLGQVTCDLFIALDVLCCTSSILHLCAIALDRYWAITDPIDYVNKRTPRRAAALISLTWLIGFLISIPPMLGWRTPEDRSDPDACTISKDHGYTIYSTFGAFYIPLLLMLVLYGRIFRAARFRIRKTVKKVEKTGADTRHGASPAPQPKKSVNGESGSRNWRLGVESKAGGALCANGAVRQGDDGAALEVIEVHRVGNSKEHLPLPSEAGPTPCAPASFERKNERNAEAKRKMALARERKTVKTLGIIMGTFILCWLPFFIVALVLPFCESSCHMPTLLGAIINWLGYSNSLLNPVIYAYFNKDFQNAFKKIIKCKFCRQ

D4 = molecular target: T3, D4 (Homo sapiens, UniProt P21917); assay: NIMH PDSP receptor binding, D4; conditions: [3H]N-methylspiperone, read-out: % Inhibition of Binding at 10 µM D-473
T3 construct: purchased NIMH PDSP
T3 sequence (P21917 whole entry): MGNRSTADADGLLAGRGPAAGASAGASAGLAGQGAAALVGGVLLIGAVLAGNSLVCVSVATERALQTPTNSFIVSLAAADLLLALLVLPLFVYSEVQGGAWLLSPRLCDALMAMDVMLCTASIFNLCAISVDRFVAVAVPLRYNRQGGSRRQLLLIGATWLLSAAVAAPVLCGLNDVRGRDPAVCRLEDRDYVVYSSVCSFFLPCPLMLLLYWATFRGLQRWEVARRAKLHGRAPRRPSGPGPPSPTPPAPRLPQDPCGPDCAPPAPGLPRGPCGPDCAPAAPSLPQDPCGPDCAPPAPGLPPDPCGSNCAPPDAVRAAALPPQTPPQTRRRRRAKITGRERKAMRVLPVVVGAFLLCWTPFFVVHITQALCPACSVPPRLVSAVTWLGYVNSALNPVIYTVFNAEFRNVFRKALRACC

duration of immobility = assay: Forced swim test in rats after oral administration; assay type: in vivo; conditions: rat, sub-chronic
Method: The experiment was carried out in the same way as described in our previous publications according to the Porsolt protocol, [30]. The subjects were male Sprague Dawley rats (Harlam Sprague Dawley Inc., Indianapolis, Ind., USA) weighing 200–225 g housed in cages for at least 1 week prior to testing. Animals were maintained in a temperature-controlled environment under a 12 hr light-dark cycle. All subjects were naive and were used only once. Rats were transported to the testing room at least for one hour prior to testing for acclimatization and adaptation purposes. Experimental sessions were conducted between 9 AM to 2 PM daily. Animals were assigned randomly and were placed individually in a glass cylinder (24.5 cm×35.5 cm) filled with water at room temperature to a depth of 22 cm. All the test sessions were recorded by video cameras. The water was changed in the beginning of each session and the temperature was maintained constant at 24–25°C. Rats were judged to be immobile if they made only minimal movement, barely keeping afloat. The test procedure consisted of a pretest and test session separated by 24 h. During the pretest period, rats were placed in the swim chamber for 15 min. Followed by the initial swim exposure; rats were patted dry and were transferred to the individual cages. Drugs or vehicle were then orally administered (p.o) 15 min after the initial swim exposure and were then transported to their home cages. On the following day the rats were brought back to the testing room at least 1 h before the beginning of test session. Rats were administered either drugs or vehicle 1 h before the swim test. Each rat underwent a 5-min swim session, which was videotaped and scored later. In the case of imipramine, pretreatment time was 30 min. Drug solutions were prepared freshly on the test days. Compound D-473 was dissolved in 3% beta-hydroxy propyl cyclodextrin solution. All drug and vehicle preparations were administered orally. D-473 was administered at a dose of 5, 10, 25 and 50 mg/kg and the volume was maintained at 1.2 mL/rat. Drug or vehicle was administered 1 h prior to testing for forced swimming. An individual, blinded to the treatment, scored the videotapes for immobility. Immobility scores were analyzed by one way ANOVA test. Behavioral results were analyzed with Prism 6.0 (GraphPad Software, San Diego, CA). The immobility time for forced swimming test was analyzed by one-way ANOVA (analysis of variance) followed by post Dunnett’s multiple comparison test vs. vehicle. Data for vehicle was used as negative control, respectively. Statistical significance was assumed in analysis if p≤0.05.

hDAT = hDAT (Homo sapiens, UniProt Q01959); assay: Inhibition of [3H]DA uptake by cloned human DAT in HEK293 cells; conditions: nM, HEK293 cells expressing hDAT, average±S.E.M., 3 to 10 determinations
Chain of hDAT (Q01959 whole entry): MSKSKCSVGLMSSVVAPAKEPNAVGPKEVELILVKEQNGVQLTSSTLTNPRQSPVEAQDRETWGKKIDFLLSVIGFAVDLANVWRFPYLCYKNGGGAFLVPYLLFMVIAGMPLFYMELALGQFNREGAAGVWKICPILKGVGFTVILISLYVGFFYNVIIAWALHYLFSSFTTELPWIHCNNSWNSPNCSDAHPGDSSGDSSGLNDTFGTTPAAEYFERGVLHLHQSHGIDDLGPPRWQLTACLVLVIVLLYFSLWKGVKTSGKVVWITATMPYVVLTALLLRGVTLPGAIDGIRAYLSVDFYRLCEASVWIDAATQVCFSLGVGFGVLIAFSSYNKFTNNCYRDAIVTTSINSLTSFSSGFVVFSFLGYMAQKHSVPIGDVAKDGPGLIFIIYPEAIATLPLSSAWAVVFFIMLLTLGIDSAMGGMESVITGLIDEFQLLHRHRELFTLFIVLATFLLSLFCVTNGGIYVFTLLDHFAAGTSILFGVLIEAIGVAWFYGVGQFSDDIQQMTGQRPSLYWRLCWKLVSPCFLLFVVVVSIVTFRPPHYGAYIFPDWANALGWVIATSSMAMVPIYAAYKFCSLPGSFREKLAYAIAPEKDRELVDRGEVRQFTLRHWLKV

PBR = assay: NIMH PDSP receptor binding, PBR
Alpha1A = molecular target: T4, Alpha1A (Homo sapiens, UniProt P35348); assay: NIMH PDSP receptor binding, Alpha1A; conditions: [3H]Prazosin, read-out: % Inhibition of Binding at 10 µM D-473
T4 construct: purchased NIMH PDSP
T4 sequence (P35348 whole entry): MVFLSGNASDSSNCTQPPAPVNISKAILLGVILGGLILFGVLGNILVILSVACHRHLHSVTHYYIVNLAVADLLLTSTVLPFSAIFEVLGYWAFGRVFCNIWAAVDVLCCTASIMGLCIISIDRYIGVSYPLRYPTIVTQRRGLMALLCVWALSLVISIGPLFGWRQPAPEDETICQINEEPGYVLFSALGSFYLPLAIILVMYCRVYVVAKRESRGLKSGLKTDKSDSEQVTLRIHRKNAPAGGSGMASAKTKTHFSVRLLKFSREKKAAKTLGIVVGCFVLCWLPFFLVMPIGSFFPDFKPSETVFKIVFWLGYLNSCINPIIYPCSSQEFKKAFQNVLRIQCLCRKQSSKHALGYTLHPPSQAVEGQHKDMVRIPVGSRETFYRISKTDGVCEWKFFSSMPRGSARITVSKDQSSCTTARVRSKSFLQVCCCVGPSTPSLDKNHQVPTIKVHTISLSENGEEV

SMILES: COc1ccc(CN[C@@H]2CO[C@H](C(c3ccc(F)cc3)c3ccc(F)cc3)C[C@H]2O)cc1 [Compound D-473, (2S,4R,5R)-2-(bis(4-fluorophenyl)methyl)-5-((4-methoxybenzyl)amino)tetrahydro-2H-pyran-4-ol]
- inhibition at 10 µM (Alpha2C; 10 µM, read-out: % Inhibition of Binding at 10 µM D-473): 61%
- Ki (Alpha2C; secondary assay, read-out: Ki for D-473): > 10000 nM
- % Inhibition of Binding at 10 µM D-473 (BZP Rat Brain Site): −3%
- Ki (hNET; NET uptake, Ki, nM [3H]DA, HEK293 cells expressing hNET, average±S.E.M., 3 to 10 determinations): 39 nM and 39.7 nM
- Activity at NET relative to DAT (hNET; hNET vs hDAT uptake inhibition): roughly two fold more potent
- inhibition at 10 µM (δ-opioid): 42.7%
- Cmax ([1]; 3% HPßCD in water, read-out: Average maximum plasma concentration, Cmax): 404 ± 223 ng/mL
- half-life ([1]; read-out: Estimated average half-life (converted)): 6.39 ± 0.106 h
- inhibition at 10 µM (5HT1a): 35.4%
- inhibition at 10 µM (D4): 37.2%
- Duration of immobility in the forced swimming test (duration of immobility; 5 mg/kg p.o., vs vehicle): did not produce significant reduction in immobility
- Duration of immobility in the forced swimming test (duration of immobility; 10 mg/kg p.o., vs vehicle (P<0.01), 10 mg/kg): robust, statistically significant effect; also recorded: statistically significant different compared to vehicle
- Duration of immobility in the forced swimming test (duration of immobility; 25 mg/kg p.o., vs vehicle (P<0.01)): statistically significant different compared to vehicle
- Duration of immobility in the forced swimming test (duration of immobility; 50 mg/kg p.o., vs vehicle (P<0.01)): statistically significant different compared to vehicle
- Ki (hDAT): 70 nM and 70.4 nM
- % Inhibition of Binding at 10 µM D-473 (PBR): 8.4%
- inhibition at 10 µM (Alpha1A): 23.6%
